Results reported in ChEMBL document CHEMBL6115030, “Systematic All-Hydrocarbon Stapling Analysis for Cecropin A Generates a Potent and Stable Antimicrobial Peptide” (J Med Chem, 2025).
Values after ≈ are worked out from the molar mass of the structure shown. Bridge positions count the residues as written; N and C are the ends. Square brackets hold non-standard residues; d marks the D form. Peptide text beside a SMILES is read from it. R5 = C=CCCC[C@@](C)(N)C(=O)O; S5 = C=CCCC[C@](C)(N)C(=O)O

How the values were obtained:
Assay type in all cases: functional
Staphylococcus aureus = assay: Antibacterial activity against Staphylococcus aureus ATCC 25923 assessed as inhibition of bacterial growth measured after 24 hrs by broth microdilution method
Pseudomonas aeruginosa = assay: Antibacterial activity against Pseudomonas aeruginosa PAO1 assessed as inhibition of bacterial growth measured after 24 hrs by broth microdilution method
Klebsiella pneumoniae = assay: Antibacterial activity against Klebsiella pneumoniae ATCC 13883 assessed as inhibition of bacterial growth measured after 24 hrs by broth microdilution method

Compound: CC[C@H](C)[C@H](NC(=O)CNC(=O)[C@H](CC(=O)O)NC(=O)[C@H](CCCNC(=N)N)NC(=O)[C@@H](NC(=O)[C@H](CC(N)=O)NC(=O)[C@H](CCC(N)=O)NC(=O)CNC(=O)[C@@H](NC(=O)[C@H](CCCCN)NC(=O)[C@H](CCC(=O)O)NC(=O)[C@@H](NC(=O)[C@H](CCCCN)NC(=O)[C@H](CCCCN)NC(=O)[C@H](Cc1ccccc1)NC(=O)[C@H](CC(C)C)NC(=O)[C@H](CCCCN)NC(=O)[C@H](Cc1c[nH]c2ccccc12)NC(=O)[C@H](CCCCN)NC(C)=O)[C@@H](C)CC)C(C)C)[C@@H](C)CC)C(=O)N[C@H](C(=O)N[C@@H](CCCCN)C(=O)N[C@@H](C)C(=O)NCC(=O)N1CCC[C@H]1C(=O)N[C@@H](C)C(=O)N[C@H](C(=O)N[C@@]1(C)CCC/C=C\CCC[C@@](C)(C(=O)N[C@@H](C)C(=O)N[C@H](C(=O)N[C@@H](CCC(N)=O)C(=O)N[C@H](C(=O)N[C@@H](C)C(=O)N[C@@H](CCCCN)C(N)=O)[C@@H](C)CC)[C@@H](C)O)NC(=O)CNC(=O)[C@H](C(C)C)NC(=O)[C@H](C(C)C)NC1=O)C(C)C)[C@@H](C)CC (Ac-KWKLFKKIEKVGQNIRDGIIKAGPAV[S5]VVG[S5]ATQIAK-NH2; staple (Z) 27-31)
- MIC (Staphylococcus aureus): 3.13 µM (≈ 12.8 µg/mL)
- MIC (Pseudomonas aeruginosa): 6.25 µM (≈ 25.6 µg/mL)
- MIC (Klebsiella pneumoniae): 6.25 µM (≈ 25.6 µg/mL)

Compound: CC[C@H](C)[C@H](NC(=O)[C@H](CCC(N)=O)NC(=O)[C@@H](NC(=O)[C@H](C)NC(=O)[C@H](CCC(N)=O)NC(=O)CNC(=O)[C@@H](NC(=O)[C@@H](NC(=O)[C@H](C)NC(=O)[C@@H](NC(=O)[C@H](C)NC(=O)[C@@H]1CCCN1C(=O)CNC(=O)[C@]1(C)CCC/C=C\CCC[C@](C)(NC(=O)[C@H](CC(=O)O)NC(=O)[C@H](CCCNC(=N)N)NC(=O)[C@@H](NC(=O)[C@H](CC(N)=O)NC(=O)[C@H](CCC(N)=O)NC(=O)CNC(=O)[C@@H](NC(=O)[C@H](CCCCN)NC(=O)[C@H](CCC(=O)O)NC(=O)[C@@H](NC(=O)[C@H](CCCCN)NC(=O)[C@H](CCCCN)NC(=O)[C@H](Cc2ccccc2)NC(=O)[C@H](CC(C)C)NC(=O)[C@H](CCCCN)NC(=O)[C@H](Cc2c[nH]c3ccccc23)NC(=O)[C@H](CCCCN)NC(C)=O)[C@@H](C)CC)C(C)C)[C@@H](C)CC)C(=O)N[C@@H]([C@@H](C)CC)C(=O)N[C@@H]([C@@H](C)CC)C(=O)N[C@@H](CCCCN)C(=O)N1)C(C)C)C(C)C)C(C)C)[C@@H](C)O)C(=O)N[C@@H](C)C(=O)N[C@@H](CCCCN)C(N)=O (Ac-KWKLFKKIEKVGQNIRD[S5]IIK[S5]GPAVAVVGQATQIAK-NH2; staple (Z) 18-22)
- MIC (Staphylococcus aureus): 3.13 µM (≈ 13 µg/mL)
- MIC (Pseudomonas aeruginosa): 3.13 µM (≈ 13 µg/mL)
- MIC (Klebsiella pneumoniae): 3.13 µM (≈ 13 µg/mL)

Compound: CC[C@H](C)[C@@H]1NC(=O)CNC(=O)[C@](C)(NC(=O)[C@H](CCCNC(=N)N)NC(=O)[C@@H](NC(=O)[C@H](CC(N)=O)NC(=O)[C@H](CCC(N)=O)NC(=O)CNC(=O)[C@@H](NC(=O)[C@H](CCCCN)NC(=O)[C@H](CCC(=O)O)NC(=O)[C@@H](NC(=O)[C@H](CCCCN)NC(=O)[C@H](CCCCN)NC(=O)[C@H](Cc2ccccc2)NC(=O)[C@H](CC(C)C)NC(=O)[C@H](CCCCN)NC(=O)[C@H](Cc2c[nH]c3ccccc23)NC(=O)[C@H](CCCCN)NC(C)=O)[C@@H](C)CC)C(C)C)[C@@H](C)CC)CCC/C=C\CCC[C@](C)(C(=O)N[C@@H](C)C(=O)NCC(=O)N2CCC[C@H]2C(=O)N[C@@H](C)C(=O)N[C@H](C(=O)N[C@@H](C)C(=O)N[C@H](C(=O)N[C@H](C(=O)NCC(=O)N[C@@H](CCC(N)=O)C(=O)N[C@@H](C)C(=O)N[C@H](C(=O)N[C@@H](CCC(N)=O)C(=O)N[C@H](C(=O)N[C@@H](C)C(=O)N[C@@H](CCCCN)C(N)=O)[C@@H](C)CC)[C@@H](C)O)C(C)C)C(C)C)C(C)C)NC(=O)[C@H]([C@@H](C)CC)NC1=O (Ac-KWKLFKKIEKVGQNIR[R5]GII[R5]AGPAVAVVGQATQIAK-NH2; staple (Z) 17-21)
- MIC (Staphylococcus aureus): 6.25 µM (≈ 25.3 µg/mL)
- MIC (Pseudomonas aeruginosa): > 100 µM
- MIC (Klebsiella pneumoniae): 25 µM (≈ 101 µg/mL)

Compound: CC[C@H](C)[C@@H]1NC(=O)CNC(=O)[C@H](CC(=O)O)NC(=O)[C@@](C)(NC(=O)[C@@H](NC(=O)[C@H](CC(N)=O)NC(=O)[C@H](CCC(N)=O)NC(=O)CNC(=O)[C@@H](NC(=O)[C@H](CCCCN)NC(=O)[C@H](CCC(=O)O)NC(=O)[C@@H](NC(=O)[C@H](CCCCN)NC(=O)[C@H](CCCCN)NC(=O)[C@H](Cc2ccccc2)NC(=O)[C@H](CC(C)C)NC(=O)[C@H](CCCCN)NC(=O)[C@H](Cc2c[nH]c3ccccc23)NC(=O)[C@H](CCCCN)NC(C)=O)[C@@H](C)CC)C(C)C)[C@@H](C)CC)CCC/C=C\CCC[C@@](C)(C(=O)N[C@@H](CCCCN)C(=O)N[C@@H](C)C(=O)NCC(=O)N2CCC[C@H]2C(=O)N[C@@H](C)C(=O)N[C@H](C(=O)N[C@@H](C)C(=O)N[C@H](C(=O)N[C@H](C(=O)NCC(=O)N[C@@H](CCC(N)=O)C(=O)N[C@@H](C)C(=O)N[C@H](C(=O)N[C@@H](CCC(N)=O)C(=O)N[C@H](C(=O)N[C@@H](C)C(=O)N[C@@H](CCCCN)C(N)=O)[C@@H](C)CC)[C@@H](C)O)C(C)C)C(C)C)C(C)C)NC1=O (Ac-KWKLFKKIEKVGQNI[S5]DGI[S5]KAGPAVAVVGQATQIAK-NH2; staple (Z) 16-20)
- MIC (Staphylococcus aureus): 12.5 µM (≈ 50.3 µg/mL)
- MIC (Pseudomonas aeruginosa): 100 µM (≈ 403 µg/mL)
- MIC (Klebsiella pneumoniae): 6.25 µM (≈ 25.2 µg/mL)

Compound: CC[C@H](C)[C@H](NC(=O)[C@H](CCC(N)=O)NC(=O)[C@@H](NC(=O)[C@H](C)NC(=O)[C@H](CCC(N)=O)NC(=O)CNC(=O)[C@@H](NC(=O)[C@@H](NC(=O)[C@H](C)NC(=O)[C@@H](NC(=O)[C@H](C)NC(=O)[C@@H]1CCCN1C(=O)CNC(=O)[C@H](C)NC(=O)[C@H](CCCCN)NC(=O)[C@@H](NC(=O)[C@]1(C)CCC/C=C\CCC[C@](C)(NC(=O)[C@H](CC(N)=O)NC(=O)[C@H](CCC(N)=O)NC(=O)CNC(=O)[C@@H](NC(=O)[C@H](CCCCN)NC(=O)[C@H](CCC(=O)O)NC(=O)[C@@H](NC(=O)[C@H](CCCCN)NC(=O)[C@H](CCCCN)NC(=O)[C@H](Cc2ccccc2)NC(=O)[C@H](CC(C)C)NC(=O)[C@H](CCCCN)NC(=O)[C@H](Cc2c[nH]c3ccccc23)NC(=O)[C@H](CCCCN)NC(C)=O)[C@@H](C)CC)C(C)C)C(=O)N[C@@H](CCCNC(=N)N)C(=O)N[C@@H](CC(=O)O)C(=O)NCC(=O)N1)[C@@H](C)CC)C(C)C)C(C)C)C(C)C)[C@@H](C)O)C(=O)N[C@@H](C)C(=O)N[C@@H](CCCCN)C(N)=O (Ac-KWKLFKKIEKVGQN[S5]RDG[S5]IKAGPAVAVVGQATQIAK-NH2; staple (Z) 15-19)
- MIC (Staphylococcus aureus): > 100 µM
- MIC (Pseudomonas aeruginosa): 100 µM (≈ 407 µg/mL)
- MIC (Klebsiella pneumoniae): 12.5 µM (≈ 50.9 µg/mL)

Compound: CC[C@H](C)[C@H](NC(=O)[C@H](CCC(N)=O)NC(=O)[C@@H](NC(=O)[C@H](C)NC(=O)[C@H](CCC(N)=O)NC(=O)CNC(=O)[C@@H](NC(=O)[C@@H](NC(=O)[C@H](C)NC(=O)[C@@H](NC(=O)[C@H](C)NC(=O)[C@@H]1CCCN1C(=O)CNC(=O)[C@H](C)NC(=O)[C@H](CCCCN)NC(=O)[C@@H](NC(=O)[C@@H](NC(=O)[C@]1(C)CCC/C=C\CCC[C@](C)(NC(=O)[C@H](CCC(N)=O)NC(=O)CNC(=O)[C@@H](NC(=O)[C@H](CCCCN)NC(=O)[C@H](CCC(=O)O)NC(=O)[C@@H](NC(=O)[C@H](CCCCN)NC(=O)[C@H](CCCCN)NC(=O)[C@H](Cc2ccccc2)NC(=O)[C@H](CC(C)C)NC(=O)[C@H](CCCCN)NC(=O)[C@H](Cc2c[nH]c3ccccc23)NC(=O)[C@H](CCCCN)NC(C)=O)[C@@H](C)CC)C(C)C)C(=O)N[C@@H]([C@@H](C)CC)C(=O)N[C@@H](CCCNC(=N)N)C(=O)N[C@@H](CC(=O)O)C(=O)N1)[C@@H](C)CC)[C@@H](C)CC)C(C)C)C(C)C)C(C)C)[C@@H](C)O)C(=O)N[C@@H](C)C(=O)N[C@@H](CCCCN)C(N)=O (Ac-KWKLFKKIEKVGQ[S5]IRD[S5]IIKAGPAVAVVGQATQIAK-NH2; staple (Z) 14-18)
- MIC (Staphylococcus aureus): > 100 µM
- MIC (Pseudomonas aeruginosa): > 100 µM
- MIC (Klebsiella pneumoniae): > 100 µM

Compound: CC[C@H](C)[C@H](NC(=O)CNC(=O)[C@]1(C)CCC/C=C\CCC[C@](C)(NC(=O)CNC(=O)[C@@H](NC(=O)[C@H](CCCCN)NC(=O)[C@H](CCC(=O)O)NC(=O)[C@@H](NC(=O)[C@H](CCCCN)NC(=O)[C@H](CCCCN)NC(=O)[C@H](Cc2ccccc2)NC(=O)[C@H](CC(C)C)NC(=O)[C@H](CCCCN)NC(=O)[C@H](Cc2c[nH]c3ccccc23)NC(=O)[C@H](CCCCN)NC(C)=O)[C@@H](C)CC)C(C)C)C(=O)N[C@@H](CC(N)=O)C(=O)N[C@@H]([C@@H](C)CC)C(=O)N[C@@H](CCCNC(=N)N)C(=O)N1)C(=O)N[C@H](C(=O)N[C@@H](CCCCN)C(=O)N[C@@H](C)C(=O)NCC(=O)N1CCC[C@H]1C(=O)N[C@@H](C)C(=O)N[C@H](C(=O)N[C@@H](C)C(=O)N[C@H](C(=O)N[C@H](C(=O)NCC(=O)N[C@@H](CCC(N)=O)C(=O)N[C@@H](C)C(=O)N[C@H](C(=O)N[C@@H](CCC(N)=O)C(=O)N[C@H](C(=O)N[C@@H](C)C(=O)N[C@@H](CCCCN)C(N)=O)[C@@H](C)CC)[C@@H](C)O)C(C)C)C(C)C)C(C)C)[C@@H](C)CC (Ac-KWKLFKKIEKVG[S5]NIR[S5]GIIKAGPAVAVVGQATQIAK-NH2; staple (Z) 13-17)
- MIC (Staphylococcus aureus): 50 µM (≈ 203 µg/mL)
- MIC (Pseudomonas aeruginosa): 100 µM (≈ 405 µg/mL)
- MIC (Klebsiella pneumoniae): 6.25 µM (≈ 25.3 µg/mL)

Compound: CC[C@H](C)[C@H](NC(=O)CNC(=O)[C@H](CC(=O)O)NC(=O)[C@]1(C)CCC/C=C\CCC[C@](C)(NC(=O)[C@@H](NC(=O)[C@H](CCCCN)NC(=O)[C@H](CCC(=O)O)NC(=O)[C@@H](NC(=O)[C@H](CCCCN)NC(=O)[C@H](CCCCN)NC(=O)[C@H](Cc2ccccc2)NC(=O)[C@H](CC(C)C)NC(=O)[C@H](CCCCN)NC(=O)[C@H](Cc2c[nH]c3ccccc23)NC(=O)[C@H](CCCCN)NC(C)=O)[C@@H](C)CC)C(C)C)C(=O)N[C@@H](CCC(N)=O)C(=O)N[C@@H](CC(N)=O)C(=O)N[C@@H]([C@@H](C)CC)C(=O)N1)C(=O)N[C@H](C(=O)N[C@@H](CCCCN)C(=O)N[C@@H](C)C(=O)NCC(=O)N1CCC[C@H]1C(=O)N[C@@H](C)C(=O)N[C@H](C(=O)N[C@@H](C)C(=O)N[C@H](C(=O)N[C@H](C(=O)NCC(=O)N[C@@H](CCC(N)=O)C(=O)N[C@@H](C)C(=O)N[C@H](C(=O)N[C@@H](CCC(N)=O)C(=O)N[C@H](C(=O)N[C@@H](C)C(=O)N[C@@H](CCCCN)C(N)=O)[C@@H](C)CC)[C@@H](C)O)C(C)C)C(C)C)C(C)C)[C@@H](C)CC (Ac-KWKLFKKIEKV[S5]QNI[S5]DGIIKAGPAVAVVGQATQIAK-NH2; staple (Z) 12-16)
- MIC (Staphylococcus aureus): 25 µM (≈ 102 µg/mL)
- MIC (Pseudomonas aeruginosa): > 100 µM
- MIC (Klebsiella pneumoniae): > 100 µM
